Patent US6472408B1, “Dimeric compounds” (priority 2000, dated 2002)
Where a name gives a salt, the structure may show the parent alone. Read-outs that look alike come from different tables or passages of the source.

Tests used:
[1] = target: T1, AChE (Rattus norvegicus, UniProt P37136); assay: biochemical; settings: for Selectivity for AChE: IC50(BChE)/IC50(AChE)
T1 construct: Frontal cortex (brain dissected on ice) was homogenized in sodium phosphate buffer; from tissue; host or cells: rat frontal cortex homogenate
T1 sequence (P37136 32-614): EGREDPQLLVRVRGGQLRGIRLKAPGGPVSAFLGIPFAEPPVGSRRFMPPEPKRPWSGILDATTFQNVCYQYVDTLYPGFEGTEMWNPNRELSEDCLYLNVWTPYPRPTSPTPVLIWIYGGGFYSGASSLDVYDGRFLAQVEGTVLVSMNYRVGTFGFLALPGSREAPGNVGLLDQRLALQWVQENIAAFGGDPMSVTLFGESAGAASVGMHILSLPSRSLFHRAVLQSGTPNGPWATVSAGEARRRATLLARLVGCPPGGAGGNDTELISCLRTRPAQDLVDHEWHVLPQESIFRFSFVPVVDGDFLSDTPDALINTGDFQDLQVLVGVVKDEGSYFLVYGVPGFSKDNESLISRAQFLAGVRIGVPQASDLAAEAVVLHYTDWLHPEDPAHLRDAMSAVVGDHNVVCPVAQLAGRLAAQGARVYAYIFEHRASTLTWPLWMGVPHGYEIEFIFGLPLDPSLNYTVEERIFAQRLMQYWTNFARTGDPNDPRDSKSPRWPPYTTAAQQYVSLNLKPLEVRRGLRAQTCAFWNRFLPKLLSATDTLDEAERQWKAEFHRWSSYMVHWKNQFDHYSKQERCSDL
Protocol: (§1) Rat serum was obtained by centrifugation of blood (3500×g, 10 min.). The cholinesterase assays were performed using the cloroimetric method of Ellman, with minor modification. […] A mixture of 4 mL containing acetylthiocholine iodide (0.3 mM) or butrylthiocholine iodide (0.4 mM), I mL sodium phosphate buffer ([…], pH 7.4), a solution of the compound being tested (0.1 mL), and homogenate or serum (0.1 mL) was incubated at 37° C. for 8 minutes. The reaction was terminated by the addition of sodium dodecyl sulfate (3% w/v, 1 mL), after which the 5,5′-dithiobis-(2-nitrobenzoic acid) indicator (0.2% w/v, 1 mL) was added. Enzyme activity was determined by measuring the absorbance at 420 nm after 10 minutes, relative to the drug-free control.

[2] = target: T2, BChE (Rattus norvegicus, UniProt Q9JKC1); assay: biochemical; settings: for IC50: rat serum
T2 construct: Rat serum was obtained by centrifugation of blood; from tissue; host or cells: rat serum
T2 sequence (Q9JKC1 24-597): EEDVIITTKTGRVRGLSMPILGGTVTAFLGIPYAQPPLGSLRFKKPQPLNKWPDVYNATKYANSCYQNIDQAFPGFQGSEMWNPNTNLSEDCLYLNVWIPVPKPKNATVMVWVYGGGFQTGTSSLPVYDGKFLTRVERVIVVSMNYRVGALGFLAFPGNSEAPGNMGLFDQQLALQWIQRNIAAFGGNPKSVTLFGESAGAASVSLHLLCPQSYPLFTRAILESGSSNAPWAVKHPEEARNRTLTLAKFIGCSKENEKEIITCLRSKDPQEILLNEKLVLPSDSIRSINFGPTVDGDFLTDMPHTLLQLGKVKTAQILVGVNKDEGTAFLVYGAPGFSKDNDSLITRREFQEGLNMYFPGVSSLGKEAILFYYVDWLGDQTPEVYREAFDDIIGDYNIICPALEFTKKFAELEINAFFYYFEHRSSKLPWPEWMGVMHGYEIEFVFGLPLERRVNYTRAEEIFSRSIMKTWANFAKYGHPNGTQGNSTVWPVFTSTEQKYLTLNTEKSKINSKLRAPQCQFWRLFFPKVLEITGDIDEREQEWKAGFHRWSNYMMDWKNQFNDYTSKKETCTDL
Protocol: as §1, with “AChE and BChE enzyme preparations were prepared from cortex and serum respectively of decapitated rats. Frontal cortex (brain dissected on ice) was homogenized in sodium phosphate buffer (39 vol. 75 mM, pH 7.4). Rat” for “Rat”

[3] = at 0.5 mM, the highest drug concentration tested
[4] = Table II, in the presence of BW284c51 as a specific AChE inhibitor, drugs assayed as salts
[5] = Table III, in the presence of BW284c51, drugs 13 assayed as hydrochloride salts
[6] = Table II, rat cortex homogenate, in the presence of ethopropazine as a specific BChE inhibitor, drugs assayed as hydrochloride or fumaric acid salts, read-out: AchE IC50
[7] = Table III, rat cornea homogenate, in the presence of ethopropazine, drugs 13 assayed as hydrochloride salts, read-out: AChE IC50

Row | Structure (SMILES) | Selectivity for AChE ([1]; Table II) | IC50 [2, 4] [µM] | IC50 [1, 6] [µM] | other results
1 | CCCCNC1CCCc2[nH]c(=O)ccc21 (racemic) [(±)-16, 5-n-Butylamino-5,6,7,8-tetrahydroquinolinone, bis-Hydrochloride, reference compound] | ·1 | ~500 |  | IC50 [1]: ~500 µM; inhibition at 500 µM [1, 3]: ~50%; inhibition at 500 µM [2, 3]: ~50%
2 | O=c1ccc2c([nH]1)CCC[C@H]2NCCCCCCCCCCCCN[C@@H]1CCCc2[nH]c(=O)ccc21 [(R,R)-(+)-13i] |  |  |  | IC50 [2, 5]: 297 µM
3 | CC1(C)Cc2[nH]c(=O)ccc2C(NCCCCCCCNC2CC(C)(C)Cc3[nH]c(=O)ccc32)C1 (racemic) [rac-lmeso-14d, rac-/meso-N,N′-Di-5′-(7′,7′-Dimethyl-5′,6′,7′,8′-tetrahydroquinolin-2-onyl)-1,7-diaminoheptane, bis-Fumaric Acid Salt] | 10 | 190 | 18.3 | 
4 | CC1(C)Cc2[nH]c(=O)ccc2C(NCCCCCCCCCCNC2CC(C)(C)Cc3[nH]c(=O)ccc32)C1 (racemic) [rac-lmeso-14g] | 17 |  | 6.11 | 
5 | COc1ccc2c(n1)CCCC2NCCCCCCCCCCNC1CCCc2nc(OC)ccc21 (racemic) [rac-lmeso-17g, rac-/meso-N,N′-di-5′-(5′,6′,7′,8′-Tetrahydro-2′-methoxy-quinolinyl)-1,10-diaminodecane, bis-Fumaric Acid] | 7.6 | 34.6 | 4.53 | 
6 | O=c1ccc2c([nH]1)CCCC2NCCCCCCCCCNC1CCCc2[nH]c(=O)ccc21 (racemic) [rac-lmeso-13f] | 30.3 |  | 0.356 ± 0.007 | 
7 | O=c1ccc2c([nH]1)CCCC2NCCCCCCCCNC1CCCc2[nH]c(=O)ccc21 (racemic) [rac-lmeso-13e] | 8.7 | 10.2 | 1.17 | 
8 | CC1(C)Cc2[nH]c(=O)ccc2C(NCCCCCCCCCCCCNC2CC(C)(C)Cc3[nH]c(=O)ccc32)C1 (racemic) [rac-lmeso-14i] | 17 |  | 3.62 | 
9 | O=c1ccc2c([nH]1)CCC[C@@H]2NCCCCCCCCCCCCN[C@H]1CCCc2[nH]c(=O)ccc21 [(S,S)-(−)-13i, (S,S)-(−)-N,N′-di-5′-(5′,6′,7′,8′-Tetrahydroquinolin-2-onyl)-1,12-diaminododecane, bis-Hydrochloride Salt] |  |  |  | IC50 [2, 5]: 9.6 µM
10 | O=c1ccc2c([nH]1)CCC[C@@H]2NCCCCCCCCCCN[C@H]1CCCc2[nH]c(=O)ccc21 [(S,S)-(−)-13g] |  |  |  | IC50 [2, 5]: 1.82 µM
11 | O=c1ccc2c([nH]1)CCC[C@@H]2NCCCCCCCCCCCN[C@H]1CCCc2[nH]c(=O)ccc21 [(S,S)-(−)-13h] |  |  |  | Selectivity for AChE ([1]; Table III): 13.8; IC50 [1, 7]: 0.084 ± 0.005 µM; IC50 [2, 5]: 1.16 µM
12 | O=c1ccc2c([nH]1)CCCC2NCCCCCCCCCCCCNC1CCCc2[nH]c(=O)ccc21 (racemic) [rac-lmeso-13i] |  | 24.4 |  | 
13 | Cn1c2c(ccc1=O)C(NCCCCCCCCCCNC1CCCc3c1ccc(=O)n3C)CCC2 (racemic) [rac-lmeso-15g, rac/meso-N,N′-di-5′-(5′,6′,7′,8′-Tetrahydro-1′-methyl-quinolinolyl)-1,10-diaminodecane, bis-Fumaric Acid] | 180 |  | 0.438 ± 0.029 | 
14 | O=c1ccc2c([nH]1)CCCC2NCCCCCCCCCCNC1CCCc2[nH]c(=O)ccc21 (racemic) [rac-lmeso-13g] |  | 5.45 |  | 
15 | CC1(NCCCCCCCCCCNC2(C)CCCc3[nH]c(=O)ccc32)CCCc2[nH]c(=O)ccc21 (racemic) [rac-lmeso-19g, rac-/meso-N,N′-di-5′-(5′,6′,7′,8′-Tetrahydro-5′-methylquinolinonyl)-1,10-diaminodecane, Fumaric Acid Salt] | 6.6 |  | 1.86 | fold less potent than 13 g ([1]; AChE potency): 8 fold
16 | O=c1ccc2c([nH]1)CCC[C@@H]2NCCCCCCCCCCCCCCN[C@H]1CCCc2[nH]c(=O)ccc21 [(S,S)-(−)-13k] |  |  |  | Selectivity for AChE ([1]; Table III): 248; IC50 [1, 7]: 0.24 ± 0.05 µM; IC50 [2, 5]: 59.5 µM
17 | O=c1ccc2c([nH]1)CCCC2NCCCCCCCNC1CCCc2[nH]c(=O)ccc21 (racemic) [rac-lmeso-13d, rac-/meso-N′,N′-Di-5′-(5′,6′,7′,8′-Tetrahydroquinolin-2-onyl)-1,7-diaminoheptane, bis-Hydrochloride Salt] | 28.0 | 34.6 | 1.24 | 
18 | O=c1ccc2c([nH]1)CCCC2NCCCCCNC1CCCc2[nH]c(=O)ccc21 (racemic) [rac-lmeso-13b] | 9.1 |  | 10.5 | 
19 | O=c1ccc2c([nH]1)CCCC2NCCCCCCNC1CCCc2[nH]c(=O)ccc21 (racemic) [rac-lmeso-13c] | 26.3 | 98.8 | 3.76 | 
20 | COc1ccc2c(n1)CCCC2NCCCCCCCCCCCCNC1CCCc2nc(OC)ccc21 (racemic) [rac-lmeso-17i] | 15.8 | 78.9 | 5 | fold increase in AChE IC50 relative to rac-/meso-13i [1]: 31 fold
21 | O=c1ccc2c([nH]1)CCC[C@@H]2NCCCCCCCCCCCCCN[C@H]1CCCc2[nH]c(=O)ccc21 [(S,S)-(−)-13j] |  |  |  | Selectivity for AChE ([1]; Table III): 321; IC50 [1, 7]: 0.052 ± 0.009 µM; IC50 [2, 5]: 16.7 µM
22 | O=c1ccc2c([nH]1)CCCC2NCCCCNC1CCCc2[nH]c(=O)ccc21 (racemic) [rac-lmeso-13a] | 2.7 | 115 | 42.3 | 
23 | CC1(C)Cc2[nH]c(=O)ccc2C(NCCCCCCCCCNC2CC(C)(C)Cc3[nH]c(=O)ccc32)C1 (racemic) [rac-lmeso-14f] | 8.8 | 104 | 11.8 | 
